Laboratory results taken from article PMC5556071, “ATR inhibition facilitates targeting of leukemia dependence on convergent nucleotide biosynthetic pathways” (Nature Communications, 2017).
pIC50: −log10 of the molar value. Where two headings read alike, the source gives them in different places.

How the values were obtained:
Type in all cases: cell-based, human
CEM cells [1] = test: Cell cycle analysis of asynchronous cells by flow cytometry (S-phase population, S-phase arrest); conditions: CEM, 24 h
Experimental: Cell cycle histograms. Cells were plated at a density of 0.5 x 10^6 cells/mL in respective media or drug treated media. Following 24 h incubation, cells were harvested and washed twice with PBS twice before staining with 0.5 ml of propidium iodide (Calbiochem, #P3566, 1 µg/mL) solution containing Ribonuclease A and 0.3% Triton-X 100. The samples were protected from light before acquisition by flow cytometry.
Cell cycle kinetics and cell cycle progression by intracellular detection of DNA-incorporated 5-ethynyl-2-deoxyuridine (EdU). CEM T-ALL cells were plated at a density of 0.5 x 10^6 cells/mL. Cells were pulsed with 10 µM EdU (Invitrogen) for 1 h, washed twice with PBS, and released in fresh media containing 5 µM deoxyribonucleosides, with and without drugs. Cells were collected at different time points following release in fresh media, and then fixed with 4% paraformaldehyde and permeabilized using saponin perm/wash reagent (Invitrogen). Cells were then stained with azide-Alexa Fluor 647 by Click reaction according to manufacturer’s protocol (Invitrogen; Click-iT EdU Flow cytometry kit, #C10634). […]

CEM cells [2] = test: Proliferation assay (CellTiter-Glo, 72 h)
Experimental: Cells were plated in 384-well plates (1000 cells/well for suspension cell lines and 500 cells/well for adherent cell lines in 30 µl volume). Drugs were serially diluted to the desired concentrations and an equivalent volume of DMSO was added to vehicle control. Ten microliter of the 4× diluted drugs were added to each well. Following 72 h incubation, ATP content was measured using CellTiter-Glo reagent according to manufacturer’s instructions (Promega, CellTiter-Glo Luminescent Cell Viability Assay), and analyzed by SpectraMax luminometer (Molecular Devices). IC50 values, concentrations required to inhibit proliferation by 50% compared to DMSO treated cells, were calculated using Prism 6.0 h (Graphpad Software).

Jurkat cells = test: Cell cycle histograms (propidium iodide flow cytometry); conditions: dCKi 1 µM, 24 h
Experimental: Cell cycle histograms. Cells were plated at a density of 0.5 x 10^6 cells/mL in respective media or drug treated
media. Following 24 h incubation, cells were harvested and washed twice with PBS twice before staining with
0.5 ml of propidium iodide (Calbiochem, #P3566, 1 µg/mL) solution containing Ribonuclease A and 0.3%
Triton-X 100. The samples were protected from light before acquisition by flow cytometry. […]

[3] = Suppl. Fig. 5e, BCX-1777 100 nM

Structure (SMILES)	fold higher concentration than 3-AP required to induce S-phase arrest (CEM cells [1])	pIC50 (CEM cells [2])	also measured
Cc1cn([C@H]2C[C@H](O)[C@@H](CO)O2)c(=O)[nH]c1=O [dT, thymidine]	60–100 fold	–	pIC50 (CEM cells [2]; Homo sapiens, CCRF-CEM): 3.80
OC[C@H]1O[C@@H](n2cnc3c2NC=NC[C@H]3O)C[C@@H]1O [dCF, Pentostatin]	–	–	cells in G2/M (Jurkat cells; Suppl. Fig. 4e, dCF 10 µM): 6%; cells in S phase (Jurkat cells; Suppl. Fig. 4e, dCF 10 µM): 11%
NC(=O)NO [HU, hydroxyurea]	60–100 fold	4.13	–
Cc1occc(=O)c1[O-].Cc1occc(=O)c1[O-].Cc1occc(=O)c1[O-].[Ga+3] [GaM, gallium maltolate]	60–100 fold	4.30	–
O=c1[nH]cnc2c([C@@H]3N[C@H](CO)[C@@H](O)[C@H]3O)c[nH]c12 [BCX-1777, forodesine]	–	–	cells in G2/M (Jurkat cells; [3]): 1.4%; cells in S phase (Jurkat cells; [3]): 40%
